Measured values published in patent US20230045151A1, “COMPOSITIONS AND METHODS” (MONASH UNIVERSITY, priority 2020, published 2023).

How the values were obtained:
[1] = Targeted metabolomics for PCS after L-tyrosine feeding; format: in vivo, mouse
Description: Mice were fed with L-tyrosine in drinking water (100 mg/kg/day) for 14 days, after which faeces were collected. BALF samples were collected after HDM immunization as per FIG. 1. […] Data represent samples from one experiment. All data are presented as mean values+/−SEM.
Mice received water as a control or L-tyrosine (reagent grade, ≥98% Sigma-Aldrich, St. Louis, Mo.) resuspended in drinking water under sterile conditions at the concentration of 100 mg/kg/day or 500 mg/kg/day (based on the assumption of a mouse consuming 4 ml of water daily). All mice received the treatment 2 weeks prior and throughout the experiment. […] Control mice received 200 μl of saline. For experiments employing antibiotic treatment, 3-week old mice were treated with a combination enrofloxacin (10 mg/kg/day) and amoxicillin with clavulanic acid (1 mg/kg/day) for one week, followed by one week of only amoxicillin with clavulanic acid (1 mg/kg/day). Then, mice were then put on L-tyrosine diet in drinking water for two weeks followed by HDM exposure as before. […]
25 μL of plasma samples were extracted with 100 μL of chilled methanol containing internal standard (PCS-d4 at 500 ng/ml plasma concentration), shaken on ice for 30 min and centrifuged at 4° C. for 10 min. […] Peak integration and quantitation were performed using Tracefinder 4.1 application (Thermo Scientific).

lung DCs = assay: In vivo tracking of DCs after intranasal fluorescently labelled HDM; parameters: species or system mouse; conditions: L-tyrosine-treated mice, intranasal HDM-AF647
Description: Mediastinal lymph nodes were filtered through a 40 μm cell strainer, washed with PBS supplemented with 1% fetal bovine serum and 2 mM EDTA (Invitrogen) (MACS buffer). Lungs were finely cut with scissors, digested with Collagenase IV (Gibco™) in Iscove's modified Dulbecco's medium (IMDM, Gibco™) for 50 min at 37° C. and processed as the lymph nodes. Cell counts were determined with Coulter Counter and […] were stained with freshly prepared antibody mix in MACS buffer for 20 minutes at 4° C. in a 96-well round-bottom plates (Costar). Dendritic cells were identified using monoclonal antibodies against CD11c-phycoerythrin (PE)/Cy7 (Biolegend, cat nr 117318; diluted 1:400 in MACS buffer), SiglecF-Alexa Fluor (AF) 647 (BD Biosciences™, 562680; 1:400) and MHC-II-AF700 (Biolegend, 107622, 1:800). DC activation was assessed using antibodies against PD-L2-PE (Biolegend, 107205; 1:200), CD80− Brilliant Violet (BV)-605 (Biolegend, 104729; 1:200) and CD86-BV650 (Biolegend, 105035; 1:200). T helper cells were identified using antibodies against CD3c-Pacific Blue (PB) (Biolegend, 100214; 1:800) and CD4− PerCP-Cy5.5 (Biolegend, 100434; 1:800). Activated T helper cells were identified using anti-CD44-PE antibody (BD Biosciences™, 553134, 1: 400) A regulatory subset of T helper cells (Tregs) was identified with the addition of anti-CD25-AF700 (Biolegend, 102024; 1:200) and anti-Foxp3-AF647 (Biolegend, 126408; 1:200) antibodies. For the latter, an intracellular staining was performed, where cells were incubated with anti-Foxp3 antibody diluted in 0.5% saponin from Quillaja bark (Sigma-Aldrich) for 40 minutes at 4° C. B cells were identified with anti-CD19-PE/Cy7 (eBioscience, 25-0193; 1:200) and anti-B220-FITC (Biolegend, 103206; 1:200). When indicated, HEL and HDM were labelled with Alexa Fluor 647 antibody labelling kit (Invitrogen™) and separated from the unlabelled dye with the use of PD-10 desalting columns (GE Healthcare). […] Samples were analyzed with FlowJo 10.4.2 software (Tree Star Inc., Ashland, Oreg.). […]

PCS concentrations in the faeces ([1]; L-tyrosine in drinking water 100 mg/kg/day for 14 days): increase | PCS concentrations in the airways (BALF) ([1]; L-tyrosine in drinking water 100 mg/kg/day, BALF after HDM immunization): increase
SMILES: N[C@@H](Cc1ccc(O)cc1)C(=O)O [L-tyrosine]
activation of lung DCs (surface CD80, CD86, PD-L2) (lung DCs): impairment | antigen (HDM) uptake by lung DCs (lung DCs): modest effect | migratory capacity of DCs (frequency of HDM+ DCs in the draining LNs) (lung DCs): decreased
